{
  "source": "ChEMBL document CHEMBL1152302",
  "about": "“Dihydropyrrole[2,3-d]pyridine derivatives as novel corticotropin-releasing factor-1 antagonists: mapping of the receptor binding pocket by in silico docking studies” (J Med Chem, 2008)",
  "data": [
    {"molecular_target": "T1, Corticotropin-releasing factor receptor 1 (Homo sapiens, UniProt P34998)", "T1 sequence (P34998 whole entry)": "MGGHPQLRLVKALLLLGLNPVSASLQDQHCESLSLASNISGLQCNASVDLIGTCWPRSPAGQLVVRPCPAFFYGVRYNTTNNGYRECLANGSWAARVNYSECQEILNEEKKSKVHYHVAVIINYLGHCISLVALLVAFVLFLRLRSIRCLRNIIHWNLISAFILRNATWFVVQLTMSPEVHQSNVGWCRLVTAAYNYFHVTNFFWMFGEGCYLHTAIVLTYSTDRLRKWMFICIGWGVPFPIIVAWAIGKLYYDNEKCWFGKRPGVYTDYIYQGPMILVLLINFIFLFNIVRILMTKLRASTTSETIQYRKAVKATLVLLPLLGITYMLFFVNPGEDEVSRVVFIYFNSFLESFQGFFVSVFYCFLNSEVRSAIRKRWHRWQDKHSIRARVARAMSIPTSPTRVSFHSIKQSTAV", "assay": "Displacement of [125I]sauvagine from human recombinant CRF1 receptor expressed in CHO cells by SPA", "type": "cell-based", "units": {"IC50": "nM"}, "values": [
      {"smiles": "COc1ccc2c(c1)CCN2c1cc(-n2ccc(-c3nccs3)n2)cc(C)n1", "IC50": "> 10000"},
      {"smiles": "Cc1cc(-n2ccc(-c3nccs3)n2)c2c(n1)N(c1ccc(F)cc1C)CC2", "IC50": 162},
      {"smiles": "Cc1cc(-n2ccc(-n3cccn3)n2)c2c(n1)N(c1ccc(C#N)cc1C(F)(F)F)CC2", "IC50": 145},
      {"smiles": "Cc1cc(-n2ccc(-c3nccs3)n2)c2[nH]c(=O)n(-c3ccc(C(F)(F)F)cc3C(F)(F)F)c2n1", "IC50": 8320},
      {"smiles": "Cc1cc(-n2ccc(-c3nccs3)n2)c2c(n1)N(c1ccc(C#N)cc1C#N)CC2", "IC50": 7410},
      {"smiles": "Cc1cc(-n2ccc(-c3ccccn3)n2)c2c(n1)N(c1ccc(C#N)cc1Cl)CC2", "IC50": 363},
      {"smiles": "Cc1cc(-n2ccc(-c3nccs3)n2)c2c(n1)N(c1ccc([N+](=O)[O-])cc1C(F)(F)F)CC2", "IC50": 58.9},
      {"smiles": "COc1ccc(N2CCc3c(-n4ccc(-c5nccs5)n4)cc(C)nc32)c(C)n1", "IC50": 60.3},
      {"smiles": "Cc1cc(-n2ccc(-n3cccn3)n2)c2c(n1)N(c1ccc(C#N)cc1Cl)CC2", "IC50": 115},
      {"smiles": "COc1ccc(N2CCc3c(-n4ccc(-c5nccs5)n4)cc(C)nc32)c(OC)c1", "IC50": 174},
      {"smiles": "Cc1cc(-n2ccc(-c3nccs3)n2)c2c(n1)N(c1ccc(S(C)(=O)=O)cc1Cl)CC2", "IC50": 2340},
      {"smiles": "Cc1cc(-n2ccc(-c3nccs3)n2)c2c(n1)N(c1ccc(S(C)(=O)=O)cc1S(C)(=O)=O)CC2", "IC50": 3890},
      {"smiles": "Cc1cc(-n2ccc(-c3nccs3)n2)c2nc(C)n(-c3ccc(C(F)(F)F)cc3C(F)(F)F)c2n1", "IC50": "> 10000"},
      {"smiles": "Cc1cc(-n2ccc(-c3nccs3)n2)c2c(n1)N(c1ccc(O)cc1C)CC2", "IC50": 3470},
      {"smiles": "Cc1cc(-n2ccc(-c3nccs3)n2)c2c(n1)N(c1ccc(F)cc1[N+](=O)[O-])CC2", "IC50": "> 10000"},
      {"smiles": "Cc1cc(-n2ccc(-c3ccccn3)n2)c2c(n1)N(c1ccc(C#N)cc1C)CC2", "IC50": 224},
      {"smiles": "COc1ccc(N2CCc3c(-n4ccc(-c5nccs5)n4)cc(C)nc32)c(C)c1", "IC50": 53.7},
      {"smiles": "Cc1cc(-n2ccc(-c3ccccn3)n2)c2c(n1)N(c1ccc(C#N)cc1C(F)(F)F)CC2", "IC50": 93.3},
      {"smiles": "COc1ccc(N2CCc3c(-n4ccc(-c5nccs5)n4)cc(C)nc32)c(OC)n1", "IC50": 214},
      {"smiles": "Cc1cc(-n2ccc(-n3cccn3)n2)c2c(n1)N(c1ccc(C#N)cc1C)CC2", "IC50": 316},
      {"smiles": "Cc1cc(-n2ccc(-c3nccs3)n2)c2c(n1)N(c1ccc(Cl)cc1[N+](=O)[O-])CC2", "IC50": "> 10000"},
      {"smiles": "Cc1cc(-n2ccc(-c3nccs3)n2)c2c(n1)N(c1ccc(C#N)cc1F)CC2", "IC50": 2040},
      {"smiles": "COc1ccc(N2CCc3c(-n4ccc(-c5nccs5)n4)cc(C)nc32)cc1", "IC50": 8710},
      {"smiles": "Cc1cc(-n2ccc(-c3nccs3)n2)c2c(n1)N(c1cnc(N(C)C)cc1C)CC2", "IC50": 257},
      {"smiles": "Cc1cc(-n2ccc(-c3nccs3)n2)c2c(n1)N(c1ccc(C(F)(F)F)cc1C(F)(F)F)S(=O)(=O)C2", "IC50": "> 10000"},
      {"smiles": "COc1ccc(-n2ccc3c(-n4ccc(-c5nccs5)n4)cc(C)nc32)c(C)c1", "IC50": 427},
      {"smiles": "Cc1cc(-n2ccc(-c3nccs3)n2)c2c(n1)N(c1ccc(C#N)cc1Cl)CC2", "IC50": 229},
      {"smiles": "Cc1cc(-n2ccc(-c3nccs3)n2)c2c(n1)N(c1ccc(C(F)(F)F)cc1C(F)(F)F)CC2", "IC50": 27.5},
      {"smiles": "COc1ccc(N2CCc3c(-n4ccc(-c5nccs5)n4)cc(C)nc32)c(C(F)F)c1", "IC50": 34.7},
      {"smiles": "CCc1cc(C#N)ccc1N1CCc2c(-n3ccc(-c4nccs4)n3)cc(C)nc21", "IC50": 126},
      {"smiles": "Cc1cc(-n2ccc(-c3nccs3)n2)c2cnn(-c3ccc(C#N)cc3C)c2n1", "IC50": 2750},
      {"smiles": "COc1ccc(N2CCc3c(-n4ccc(-c5nccs5)n4)cc(C)nc32)c([N+](=O)[O-])c1", "IC50": "> 10000"},
      {"smiles": "Cc1cc(-n2ccc(-c3nccs3)n2)c2nc(C(F)(F)F)n(-c3ccc(C(F)(F)F)cc3C(F)(F)F)c2n1", "IC50": "> 10000"},
      {"smiles": "COc1ccc(N2CCc3c(-n4ccc(-c5nccs5)n4)cc(C)nc32)c(Cl)c1", "IC50": 56.2},
      {"smiles": "Cc1cc(-n2ccc(-c3nccs3)n2)c2c(n1)N(c1ccc(C#N)cc1-c1cccs1)CC2", "IC50": 851}
    ]}
  ]
}
